We go through 37 compounds from US8088806B2 (Achillion Pharmaceuticals, Inc., priority 2005, dated 2012).

Bounds are passed on as bounds.

The test has as its system HCV replicon. The test can be described thus: Replicon based assay of HCV replication inhibition (NPT ELISA). Type of test: cell-based, Hepatitis C virus. As to conditions: Hepatitis C virus, replicon based assay of HCV replication inhibition; Table II; read-out: Activity. An outline of the steps:
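NPT (neomycin phosphotransferase) content, proportional to replicon replication, quantified by capture ELISA on day four. Before that, replicon-bearing Huh-7 cells in G418-free screening medium were exposed three days at 37° C to compound, typically six doses from 10 to 0.03 micromolar, with equal DMSO across wells.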
On to `CCCCCOc1ccc(Nc2nc(-c3ccc(CN(C)C)cc3)cs2)cc1C(F)(F)F` [compound 234, 4-(4-((dimethylamino)methyl)phenyl)-N-(4-(pentyloxy)-3-(trifluoromethyl)phenyl)thia-zol-2-amine], for which the EC50 was below 1000 nM. The result for `CCCCCOc1ccc(Nc2nc([C@H]3CCCN(C)C3)cs2)cc1C(F)(F)F` [compound 235, (S)-4-(1-methylpiperidin-3-yl)-N-(4-(pentyloxy)-3-(trifluoromethyl)phenyl)thia-zol-2-amine] reads below 1000 nM; that for `CN1CCC[C@H](c2csc(Nc3ccc(Oc4ccccc4)cc3)n2)C1` [compound 236, (S)-4-(1-methylpiperidin-3-yl)-N-(4-phenoxyphenyl)thiazol-2-amine], 1000 to 10000 nM; that for `CN1CCC[C@H](c2csc(Nc3cccc(OCc4ccccc4)c3)n2)C1` [compound 237, (S)-N-(3-(benzyloxy)phenyl)-4-(1-methylpiperidin-3-yl)thiazol-2-amine], 1000 to 10000 nM.

As to `FC(F)(F)c1cc(Nc2nc(-c3cccnc3)cs2)ccc1OC1CCCC1` [compound 238, N-(4-(cyclopentyloxy)-3-(trifluoromethyl)phenyl)-4-(pyridin-3-yl)thiazol-2-amine], the EC50 is below 1000 nM. The result for `CC(C)COc1ccc(Nc2nc(-c3cccnc3)cs2)cc1C(F)(F)F` [compound 239, N-(4-isobutoxy-3-(trifluoromethyl)phenyl)-4-(pyridin-3-yl)thiazol-2-amine] reads below 1000 nM; that for `FC(F)(F)c1cc(Nc2nc(-c3cccnc3)cs2)ccc1OCC1CC1` [compound 240, N-(4-(cyclopropylmethoxy)-3-(trifluoromeethyl)phenyl)-4-(pyridin-3-yl)thiazol-2-amine], below 1000 nM.

In the case of `Fc1ccc(-c2csc(Nc3ccc(OC4CCCC4)c(C(F)(F)F)c3)n2)cc1` [compound 241, N-(4-(cyclopentyloxy)-3-(trifluoromethyl)phenyl)-4-(4-fluorophenyl)thiazol-2-amine], the EC50 was below 1000 nM.

For the compound `CC(C)COc1ccc(Nc2nc(-c3ccc(F)cc3)cs2)cc1C(F)(F)F` [compound 242, 4-(4-fluorophenyl)-N-(4-isobutoxy-3-(trifluoromethyl)phenyl)thia-zol-2-amine], the EC50 was below 1000 nM. Regarding `Fc1ccc(-c2csc(Nc3ccc(OCC4CC4)c(C(F)(F)F)c3)n2)cc1` [compound 243, N-(4-(cyclopropylmethoxy)-3-(trifluoromethyl)phenyl)-4-(4-fluorophenyl)thiazol-2-amine], the EC50 was below 1000 nM. In the case of `CC(C)COc1ccc(Nc2nc(-c3ccc(CC(=O)O)s3)cs2)cc1C(F)(F)F` [compound 244, 2-(5-(2-(4-isobutoxy-3-(trifluoromethyl)phenyl-amino)thiazol-4-yl)thiophen-2-yl)acetic acid], the EC50 was below 1000 nM.

`Cc1sc(Nc2ccc(OC3CCCC3)c(C(F)(F)F)c2)nc1-c1ccc(CC(=O)O)cc1` [compound 245, 2-(4-(2-(4-(cyclopentyloxy)-3-(trifluoromethyl)phenyl-amino)-5-methylthiazol-4-yl)phenyl)acetic acid]: the EC50 is below 1000 nM. The result for `Cc1sc(Nc2ccc(OCC(C)C)c(C(F)(F)F)c2)nc1-c1ccc(CC(=O)O)cc1` [compound 246, 2-(4-(2-(4-isobutoxy-3-(trifluoromethyl)phenyl-amino)-5-methylthiazol-4-yl)phenyl)acetic acid] reads 1000 to 10000 nM; that for `O=C(O)Cc1ccc(-c2csc(Nc3ccc(OC4CCCC4)c(C(F)(F)F)c3)n2)s1` [compound 247, 2-(5-(2-(4-(cyclopentyloxy)-3-(trifluoromethyl)phenyl-amino)-thiazol-4-yl)thiophen-2-yl)acetic acid], below 1000 nM.

Take `COc1ccc(-c2csc(Nc3ccc(OC4CCCC4)c(C(F)(F)F)c3)n2)cc1` [compound 248, N-(4-(cyclopentyloxy)-3-(trifluoromethyl)phenyl)-4-(4-methoxyphenyl)thiazol-2-amine]: the EC50 is below 1000 nM.

Consider `COc1ccc(-c2csc(Nc3ccc(OCC(C)C)c(C(F)(F)F)c3)n2)cc1` [compound 249, N-(4-isobutoxy-3-(trifluoromethyl)phenyl)-4-(4-methoxyphenyl)thiazol-2-amine], for which the EC50 is below 1000 nM. Consider `COc1ccc(-c2csc(Nc3ccc(OCC4CC4)c(C(F)(F)F)c3)n2)cc1` [compound 250, N-(4-(cyclopropylmethoxy)-3-(trifluoromethyl)phenyl)-4-(4-methoxyphenyl)thiazol-2-amine], for which the EC50 was below 1000 nM.

With `O=C1COc2ccc(-c3csc(Nc4ccc(OC5CCCC5)c(C(F)(F)F)c4)n3)cc2N1` [compound 251, 6-(2-(4-(cyclopentyloxy)-3-(trifluoromethyl)phenyl-amino)thiazol-4-yl)-2H-benzo[b][1,4]oxazin-3(4H)-one], the EC50 was below 1000 nM. For the compound `CC(C)COc1ccc(Nc2nc(-c3ccc4c(c3)NC(=O)CO4)cs2)cc1C(F)(F)F` [compound 252, 6-(2-(4-isobutoxy-3-(trifluoromethyl)phenyl-amino)thiazol-4-yl)-2H-benzo[b][1,4]oxazin-3(4H)-one], the EC50 was below 1000 nM. The figure for `O=C1COc2ccc(-c3csc(Nc4ccc(OCC5CC5)c(C(F)(F)F)c4)n3)cc2N1` [compound 253, 6-(2-(4-(cyclopropylmethoxy)-3-(trifluoromthyl)phenyl-amino)thiazol-4-yl)-2H-benzo[b][1,4]oxazin-3(4H)-one] is 1000 to 10000 nM; for `NC(=O)c1cc(-c2csc(Nc3ccc(OC4CCCC4)c(C(F)(F)F)c3)n2)ccc1O` [compound 254, 5-(2-(4-(cyclopentyloxy)-3-(trifluoromethyl)phenyl-amino)thiazol-4-yl)-2-hydroxybenzamide] it is below 1000 nM; for `CC(C)COc1ccc(Nc2nc(-c3ccc(O)c(C(N)=O)c3)cs2)cc1C(F)(F)F` [compound 255, 2-hydroxy-5-(2-(4-isobutoxy-3-(trifluoromethyl)phenyl-amino)thiazol-4-yl)benzamide] it is below 1000 nM. Turning to `NC(=O)c1cc(-c2csc(Nc3ccc(OCC4CC4)c(C(F)(F)F)c3)n2)ccc1O` [compound 256, 5-(2-(4-(cyclopropylmethoxy)-3-(trifluoromethyl)phenyl-amino)thiazol-4-yl)-2-hydroxybenzamide], the EC50 was below 1000 nM. With `Fc1ccc(-c2csc(Nc3ccc(OC4CCCC4)c(C(F)(F)F)c3)n2)cc1F` [compound 257, N-(4-(cyclopentyloxy)-3-(trifluoromethyl)phenyl)-4-(3,4-difluorophenyl)thiazol-2-amine], the EC50 was below 1000 nM. The figure for `Cc1sc(Nc2ccc(OCC3CC3)c(C(F)(F)F)c2)nc1-c1ccc(CC(=O)O)cc1` [compound 258, 2-(4-(2-(4-(cyclopropylmethoxy)-3-(trifluoromethyl)phenyl-amino)-5-methylthiazol-4-yl)phenyl)acetic acid] is below 1000 nM; for `CCCCCOc1ccc(Nc2nc(-c3ccc(C(=O)NC)nc3)cs2)cc1C(F)(F)F` [compound 259, N-methyl-5-(2-(4-(pentyloxy)-3-(trifluoromethyl)phenyl-amino)thiazol-4-yl)picolinamide] it is below 1000 nM. The result for `CCCCCOc1ccc(Nc2nc(CNCc3cccnc3)cs2)cc1C(F)(F)F` [compound 260, N-(4-(pentyloxy)-3-(trifluoromethyl)phenyl)-4-((pyridin-3-ylmethylamino)methyl)thia-zol-2-amine] reads below 1000 nM; that for `CCCCCOc1ccc(Nc2nc(CNc3ccc(Cl)c(Cl)c3)cs2)cc1C(F)(F)F` [compound 261], 1000 to 10000 nM. Consider `CCCCCOc1ccc(Nc2nc(-c3csc(N)n3)cs2)cc1C(F)(F)F` [compound 262, 4-(2-aminothiazol-4-yl)-N-(4-(pentyloxy)-3-(trifluoromethyl)phenyl)thia-zol-2-amine], for which the EC50 was below 1000 nM. The figure for `CCCCCOc1ccc(Nc2nc(-c3cn4cccnc4n3)cs2)cc1C(F)(F)F` [compound 263, 4-(imidazo[1,2-a]pyrimidin-2-yl)-N-(4-(pentyloxy)-3-(trifluoromethyl)phenyl)thia-zol-2-amine] is below 1000 nM; for `CCCCCOc1ccc(Nc2nc(-c3ccc(CO)nc3)cs2)cc1C(F)(F)F` [compound 264, (5-(2-(4-(pentyloxy)-3-(trifluoromethyl)phenyl-amino)thiazol-4-yl)pyridin-2-yl)methanol] it is below 1000 nM.

On to `CCCCCOc1ccc(Nc2nc(CN3CCN(C(=O)OC(C)(C)C)CC3)cs2)cc1C(F)(F)F` [compound 265, tert-butyl 4-((2-(4-(pentyloxy)-3-(trifluoromethyl)phenyl-amino)thiazol-4-yl)methyl)piperazine-1-carboxylate], for which the EC50 is below 1000 nM. The result for `CCCCCOc1ccc(Nc2nc(CN3CCC(N(C)C(=O)OC(C)(C)C)C3)cs2)cc1C(F)(F)F` (stereo not shown) [compound 266, tert-butyl methyl(1-((2-(4-(pentyloxy)-3-(trifluoromethyl)phenyl-amino)thiazol-4-yl)methyl)pyrrolidin-3-yl)carbamate] reads below 1000 nM; that for `CCCCCOc1ccc(Nc2nc(CN3CCC(C(N)=O)CC3)cs2)cc1C(F)(F)F` [compound 267, 1-((2-(4-(pentyloxy)-3-(trifluoromethyl)phenyl-amino)thiazol-4-yl)methyl)piperidine-4-carboxamide], below 1000 nM. The figure for `CCCCCOc1ccc(Nc2nc(CN3CCC[C@H]3C(=O)O)cs2)cc1C(F)(F)F` [compound 268, (S)-1-((2-(4-(pentyloxy)-3-(trifluoromethyl)phenyl-amino)thiazol-4-yl)methyl)pyrrolidine-2-carboxylic acid] is below 1000 nM.

`CCCCCOc1ccc(Nc2nc(CN3CCC(O)CC3)cs2)cc1C(F)(F)F` [compound 272, 1-((2-(4-(pentyloxy)-3-(trifluoromethyl)phenyl-amino)thiazol-4-yl)methyl)piperidin-4-ol]: the EC50 is below 1000 nM. Regarding `CCCCCOc1ccc(Nc2nc(CN3CCC(CO)CC3)cs2)cc1C(F)(F)F` [compound 273, (1-((2-(4-(pentyloxy)-3-(trifluoromethyl)phenyl-amino)thiazol-4-yl)methyl)piperidin-4-yl)methanol], the EC50 is below 1000 nM.
